Laboratory results published in PMC5826148, “Whole-Cell Screen of Fragment Library Identifies Gut Microbiota Metabolite Indole Propionic Acid as Antitubercular” (Antimicrobial Agents and Chemotherapy, 2018).
Values after ≈ are worked out from the molar mass of the structure shown.

Tests used:
[1] = tested on: Escherichia coli; test: Spectrum of activity: E. coli growth inhibition; type: cell-based; conditions: Escherichia coli; LB medium, overnight; read-out: Antibacterial activity (MIC50) E. coli
[2] = Cytotoxicity assay, HepG2 cells (CellTiter 96 AQueous One); conditions: human, HepG2 cells
[3] = tested on: M. abscessus; test: Spectrum of activity: M. abscessus growth inhibition; type: cell-based; conditions: Mycobacteroides abscessus, 72 h; 3 days; read-out: Antibacterial activity (MIC50) M. abscessus
[4] = tested on: M. tuberculosis H37Rv; test: Bactericidal activity, CFU enumeration on agar after treatment; type: cell-based, Mycobacterium tuberculosis; conditions: Mycobacterium tuberculosis, H37RV; M. tuberculosis; 1 mM; log CFU/ml reduction from initial inoculum; read-out: Bactericidal activity (log reduction) at 1 mM
[5] = tested on: Staphylococcus aureus; test: Spectrum of activity: S. aureus growth inhibition; type: cell-based; conditions: Staphylococcus aureus; LB medium, overnight; read-out: Antibacterial activity (MIC50) S. aureus
[6] = tested on: M. avium; test: Spectrum of activity: M. avium growth inhibition; type: cell-based; conditions: Mycobacterium avium, 96 h; 4 days; read-out: Antibacterial activity (MIC50) M. avium
[7] = tested on: M. smegmatis; test: Spectrum of activity: M. smegmatis growth inhibition; type: cell-based; conditions: Mycolicibacterium smegmatis, 24 h; 1 day; read-out: Antibacterial activity (MIC50) M. smegmatis
[8] = tested on: M. tuberculosis H37Rv; test: M. tuberculosis growth inhibition dose-response (MIC50), turbidity readout; type: cell-based, Mycobacterium tuberculosis; conditions: Mycobacterium tuberculosis, 240 h; H37Rv, 10 days; read-out: Antibacterial activity (MIC50) M. tuberculosis
[9] = tested on: human red blood cells (RBCs); test: Red blood cell lysis assay; conditions: hemolysis
[10] = tested on: M. bovis BCG Pasteur; test: microbe, parasite or virus in culture; type: cell-based; conditions: Mycobacterium tuberculosis variant bovis BCG, BCG, read-out: Antibacterial activity (MIC50) M. bovis BCG
[11] = tested on: M. tuberculosis; test: Growth inhibition in acidic medium (pH 6.2); type: cell-based, Mycobacterium tuberculosis; conditions: Mycobacterium tuberculosis, pH 6.2; read-out: Activity (MIC50) in acidic medium (pH 6.2)
[12] = Cytotoxicity assay, THP-1 cells (CellTiter 96 AQueous One); conditions: human
[13] = tested on: M. tuberculosis H37Rv; test: Mouse model of acute M. tuberculosis infection; conditions: INH 25 mg/kg
[14] = Day 42, IPA 100 mg/kg, oral gavage 6 days/week, 4 weeks

Row | SMILES | MIC50 [1] | CC50 at 24 h [2] | MIC50 [3] | log reduction at 1000 µM [4] | MIC50 [5] | MIC50 [6] | MIC50 [7] | MIC50 [8] | RBCs HC50 [9] | MIC50 [10] | MIC50 [11] | CC50 at 24 h [12] | Lungs CFU log10, mean difference from drug-free control [13, 14] | Spleen CFU log10, mean difference from drug-free control [13, 14] | effect on bacterial load of spleen ([13]; 4 weeks of monotherapy)
1 | O=C(O)c1ccc(-c2ccsc2)cc1 [Fragment F26, 4-(3-Thienyl)benzoic acid] | > 500 µM | 944 µM | 497 µM (≈ 102 µg/mL) | 1.35 | > 500 µM | > 500 µM | > 500 µM | 320 µM (≈ 65.4 µg/mL) | >1,000 μM | > 500 µM | 125 µM (≈ 25.5 µg/mL) | 978 µM |  |  | 
2 | Oc1noc2cc(Cl)ccc12 [Fragment F27, 6-Chlorobenzo[d]isoxazol-3-ol] | > 500 µM | > 1000 µM | > 500 µM | 1.05 | > 500 µM | > 500 µM | > 500 µM | 395 µM (≈ 67 µg/mL) | >1,000 μM | > 500 µM | 210 µM (≈ 35.6 µg/mL) | 777 µM |  |  | 
3 | OCc1csc(-c2ccc(C(F)(F)F)cc2)n1 [Fragment F28, {2-[4-(Trifluoromethyl)phenyl]-1,3-thiazol-4-yl}methanol] | > 500 µM | > 1000 µM | 253 µM (≈ 65.6 µg/mL) | 1.21 | > 500 µM | 325 µM (≈ 84.3 µg/mL) | 235 µM (≈ 60.9 µg/mL) | 434 µM (≈ 113 µg/mL) | 786 µM | 398 µM (≈ 103 µg/mL) | 215 µM (≈ 55.7 µg/mL) | 940 µM |  |  | 
4 | Oc1ccc(Oc2ccccc2)cc1 [Fragment F29, 4-Phenoxyphenol] | 201 µM (≈ 37.4 µg/mL) | 202 µM | 267 µM (≈ 49.7 µg/mL) | 1.09 | 348 µM (≈ 64.8 µg/mL) | 411 µM (≈ 76.5 µg/mL) | 250 µM (≈ 46.6 µg/mL) | 439 µM (≈ 81.7 µg/mL) | 912 µM | 387 µM (≈ 72.1 µg/mL) | 118 µM (≈ 22 µg/mL) | 145 µM |  |  | 
5 | NNC(=O)c1ccncc1 [INH, isoniazid, reference compound] |  |  |  |  |  |  |  |  |  |  |  |  | -3.82 log10 CFU | -5.49 log10 CFU | sterilized the spleen
